Laboratory results published in patent US9681669B2 (priority 2012, dated 2017).
Where two headings read alike, the source gives them in different places.

Assays:
[1] = test system: Pathogenesis-related protein (PR-1); format: in vivo, Solanum tuberosum; conditions: BABA 0.3 g/l; all three genotypes
P. infestans = format: in vivo, Phytophthora infestans; conditions: BABA 0.3 g/l; Desiree, Bintje, Ovatio; 6 dpi

CC(N)CC(=O)O (stereo not drawn) [BABA, β-aminobutyric acid]
necrotic dots or lesions on treated plants (Bintje, BABA treatment (0.3 g/l)): no such lesions were observed | necrotic dots or lesions on treated plants (Desiree, two days after BABA treatment (0.3 g/l)): Small necrotic dots or lesions | PR-1 protein induction compared with SBE [1]: stronger | effect on lesion size, SBE compared with BABA-treated plants (P. infestans): not significantly different
